Data on four molecules can be found in publication PMC4598023 (PLoS ONE, 2015).

B1: monoPEGylated human amylin (peptide, UniProt P10997 34-70, looked up)
peptide: KCNTATCATQRLANFLVHSSNNFGAILSSTNVGSNTY-NH2
modifications: disulfide 2-7; also: one methoxy-PEG 5 kDa (mPEG succinimidyl carbonate) at an amino group of Lys1, N-terminal region
notes: human amylin (islet amyloid polypeptide, IAPP), the 37-residue hormone, amino acids 1 to 37; numbers count on: the mature protein; The PEG site was placed by trypsin digestion and MALDI-ToF-MS: fragment 12-37 is unmodified; also called PEGylated amylin; hAmylin-PEG
B2: murine amylin (peptide, UniProt P12968 38-74, looked up)
peptide: KCNTATCATQRLANFLVRSSNNLGPVLPPTNVGSNTY-NH2
modifications: disulfide 2-7; also: FITC (<1 mol/mol, position not given here) on labelled copy only
notes: murine amylin (islet amyloid polypeptide), the 37-residue hormone; numbers count on: the mature protein; The unlabelled ligand and the FITC-labelled copy are written as one molecule; also called free murine amylin; non-conjugated amylin; source: synthetic peptide, bought: Genemed Synthesis Inc

Where two headings read alike, the source gives them in different places. Bridges are numbered along the chain shown (N, C = ends). Where no end group is shown, it is not given here.

Data set [1] in a line: Pharmacokinetics after subcutaneous administration in mice (serum amylin by ELISA). In kind it is in vivo. Conditions: Swiss male mice, s.c., 400 μg peptide/kg; for level at time molar at 5 s / level at time molar at 0.5 min / level at time molar at 1 min / level at time molar at 2 min / level at time molar at 4 min / level at time molar at 0.8 h: male, Swiss, 400 ug peptide/kg, ELISA, read-out: amylin concentration (serum); for level at time molar at 5 s: Time 0.0833 (head: min); for level at time molar at 0.5 min: Time 0.5 (head: min); for level at time molar at 1 min: Time 1 (head: min); for level at time molar at 2 min: Time 2 (head: min); for level at time molar at 4 min: Time 4 (head: min); for level at time molar at 0.8 h: Time 48 (head: min). On the procedure:
Swiss male mice (8 weeks old; n = 4 per group) were administrated of free or monoPEGylated human amylin (both at 400 μg peptide / kg body weight) by subcutaneous route. At the indicated time interval, blood was collected with glass capillary tubes from retro-orbital access and the serum was separated. The concentration of amylin in the plasma was evaluated by ELISA (Merck Millipore, cat # EZHA-52K) by following the manufacturer protocol. The sensitivity of the ELISA assay kit for the monoPEGylated human amylin product was similar to the non-conjugated human amylin as inferred from control analytical curves. In case needed, the mice plasma samples were diluted accordingly in order to achieve the desired concentration range of the ELISA kit. Glucagon was evaluated from the same serum samples, by using an ELISA kit (Merck Millipore, Cat # EZGLU-30K) according to instructions of the manufacturer.
Continuous lines are best fitting of single-exponential decay function to data. b) Modulation of glucagon. […] The raw data can be found in S2 File.

The conditions of data set [2]: cited from earlier work. The text has this: One additional limitation for the use of the currently available amylinomimetic compound is the lack of ability for mimicking the basal levels of amylin in the fasting state. […] (Fig 6A) and thus a sustained release of amylin of an increasing in its t1/2 would serve as potential strategies for the restoration of basal hormone levels. […] Additionall ...

The test system of the next data set is Trypsin. The data set can be described thus: trypsin in 25 mM ammonium bicarbonate, after reduction with dithiothreitol and blockage with iodoacetamide. Conditions: 37°C, up to 18 h.
The target of data set [3] is T1, human receptor-activity modifying protein 3 Extracellular Topological Domain (human, UniProt O60896 28-117, fluorescein (FITC, below 1 mol per mol protein, position not stated)).
T1 construct: human receptor-activity modifying protein 3, extracellular topological domain, residues 28-117 of O60896; pET28b construct with a thrombin cleavage site after the N-terminal histidine tag; no cleavage is told; also called RAMP3-ETD; RAMP3
T1 sequence (looked up): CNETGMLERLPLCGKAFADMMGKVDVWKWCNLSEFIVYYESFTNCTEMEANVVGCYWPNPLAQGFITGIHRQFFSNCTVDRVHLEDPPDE
As to the kind of experiment: fluorescence polarisation; fluorescence anisotropy of the FITC-labelled protein (50 nM murine amylin, CTR1 or RAMP3) against total concentration of unlabelled ligand; PBS pH 7.4, 25°C; ex 480 nm, em 520 nm, cut-off filter 515 nm. The conditions noted are these: both partners purified. Background: In fluorescence polarisation assays a small probe gives low polarisation when free and higher when bound to something large.

In the data set “murine amylin” the target is B2. Described as above. Conditions: both partners purified.
Setting [4] is: fit of serum concentration vs time.
[5] abbreviates: mouse, in vivo, sc, replicate column 1.
Setting [6] is: mouse, in vivo, sc, replicate column 2.

A word on the half-life: it is the time needed for the level to fall by half in the phase considered. A lower half-life goes with rapid decline.

Regarding `CC[C@H](C)[C@H](NC(=O)[C@H](C)NC(=O)CNC(=O)[C@H](Cc1ccccc1)NC(=O)[C@H](CC(N)=O)NC(=O)[C@H](CC(N)=O)NC(=O)[C@H](CO)NC(=O)[C@H](CO)NC(=O)[C@H](Cc1c[nH]cn1)NC(=O)[C@@H](NC(=O)[C@H](CC(C)C)NC(=O)[C@H](Cc1ccccc1)NC(=O)[C@H](CC(N)=O)NC(=O)[C@H](C)NC(=O)[C@H](CC(C)C)NC(=O)[C@H](CCCNC(=N)N)NC(=O)[C@H](CCC(N)=O)NC(=O)[C@@H](NC(=O)[C@H](C)NC(=O)[C@@H]1CSSC[C@H](NC(=O)[C@@H](N)CCCCN)C(=O)N[C@@H](CC(N)=O)C(=O)N[C@@H]([C@@H](C)O)C(=O)N[C@@H](C)C(=O)N[C@@H]([C@@H](C)O)C(=O)N1)[C@@H](C)O)C(C)C)C(=O)N[C@@H](CC(C)C)C(=O)N[C@@H](CO)C(=O)N[C@@H](CO)C(=O)N[C@H](C(=O)N[C@@H](CC(N)=O)C(=O)N[C@H](C(=O)NCC(=O)N[C@@H](CO)C(=O)N[C@@H](CC(N)=O)C(=O)N[C@H](C(=O)N[C@@H](Cc1ccc(O)cc1)C(N)=O)[C@@H](C)O)C(C)C)[C@@H](C)O` [human amylin], in data set [1] ((unit not given)), the “Half Life (One phase decay, best-fit value)” value is reported as 0.3893 and the “Tau (One phase decay, best-fit value)” value came out at 0.5616. For the same molecule, in data set [1] (setting [4]), the “K (One phase decay, best-fit value)” value worked out at 1.781; the “Plateau (One phase decay, best-fit value)” value turned out to be 184.9; the “Span (One phase decay, best-fit value)” value stood at 6701; the “Y0 (One phase decay, best-fit value)” value stood at 6886. Also, in data set [1] (setting [5]), the level at time molar at 5 s is 6.63 µM, the level at time molar at 0.5 min amounted to 4690 nM, the level at time molar at 1 min turned out to be 2720 nM and the level at time molar at 2 min was 593 nM. Moreover, in data set [1] (setting [5]), the level at time molar at 4 min came to 198 nM and the level at time molar at 0.8 h came out at 22.7 nM. Moreover, in data set [1] (setting [6]), the level at time molar at 5 s turned out to be 6.71 µM, the level at time molar at 0.5 min amounted to 659 nM, the level at time molar at 1 min was determined as 423 nM and the level at time molar at 2 min is 324 nM. In data set [1] (setting [6]), the level at time molar at 4 min is 207 nM and the level at time molar at 0.8 h came to 18.2 nM. Moreover, the half-life in data set [1] (mouse, in vivo, sc, serum amylin by ELISA, single-exponential decay fit, n = 4 per group) was found to be 23 min. For the same molecule, in data set [2], the “half-life (t1/2)” value was 15 to 20 min.
On to “KCNTATCATQRLANFLVHSSNNFGAILSSTNVGSNTY-CONH2”, for which the cleaved bond result in the data set on Trypsin is recorded as “Arg11-L12”.
B1: the binding result (in data set [3]; in the data set with murine amylin) was “binds” throughout.
For B2, in data set [3], the binding result is “binds”.
